Structures are written as SMILES. Residues, ends and D or L forms follow the SMILES beside them. *: point of attachment. Hexanoyl = CCCCCC(=O)*

In this data set the test system is human liver microsomes, metabolic stability half-life. Briefly: NCATS Human Liver Microsomal (HLM) Stability Profiling. Conditions: higher = more stable; screened at 1 µM (by protocol). The gist of the method:
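Substrate depletion (in vitro t1/2): 1 µM compound with 0.5 mg/mL microsomes and NADPH regenerating system, phosphate buffer pH 7.4, 37 °C. Sampled at 0, 5, 10, 15, 30, 60 min into cold acetonitrile with albendazole internal standard for MS quantification.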
As to `CC(C)c1c(NC(=O)Nc2ccc(Cl)cc2)c(=O)n(-c2ccccc2)n1C`, the half-life is over 120 min. In the case of `Cc1ccc(S(=O)(=O)NC2CCC(C(C)(C)C)CC2)cc1` (stereo unspecified) it was 3.92 min; in that of `CC[C@@H](C)Nc1cc(C(=O)NC2CC3CC[C@@H](C2)N3c2ccc(C(=O)C3CC3)cn2)c(C)cc1C(N)=O` (stereo partly specified), over 120 min; in that of `CCOc1ccc(NC(=O)CC(C)O)cc1` (stereo unspecified), over 120 min. For `c1cc2c(c(N3CCNCC3)c1)OCCO2` the value was over 120 min. For `Cc1c(CN2CCN(C(=O)C(C)C)CC2)sc2c(N3CCOCC3)nc(-c3cnc(N)nc3)nc12` the value was over 120 min; for `O=c1[nH]c2ccc(Cl)cc2c(N[C@@H]2CN3CCC2CC3)c1-c1nc2ccccc2[nH]1`, 18.8 min.

Regarding `COc1ccc(N(C(=O)Nc2c(C)cccc2C)c2cc(Nc3ccc(N4CCN(C)CC4)cc3)ncn2)c(OC)c1`, the half-life was determined as 17.1 min. In the case of `O=C(NCCN1CCN(c2cccc3c2OCCO3)CC1)c1ccc(F)cc1` it was 34.2 min; in that of `Nc1c(Br)cc(Br)cc1CNC1CCC(O)CC1` (stereo unspecified), 110 min. In the case of `Nc1ccc2cc3ccc(N)cc3nc2c1` it was 105 min; in that of `Cc1c(-c2ccnn2C)cc(C(=O)NCc2ccc(S(C)(=O)=O)cn2)c(=O)n1-c1cccc(C(F)(F)F)c1`, over 120 min. In the case of `C[C@]12CC[C@H]3[C@@H](CCC4=CC(=O)CC[C@@]43C)[C@@H]1CC[C@@H]2C(=O)O` it was over 120 min; in that of `CCC(CC)n1ccc2c(C(=O)NCc3c(C)cc(C)[nH]c3=O)cc(C#N)cc21`, 3.94 min; in that of `CN(C)c1nc(NC2CCC(NCCc3ccc(Br)cc3OC(F)(F)F)CC2)nc2ccccc12` (stereo unspecified), over 120 min. `O=C(N/N=C/C1C=CC([N+](=O)[O-])O1)c1ccc(O)cc1` (stereo unspecified) displayed a half-life of over 120 min. For `Cc1ccc(S(=O)(=O)NC(=O)NC2CCCCC2)cc1` the value was over 120 min. For `Cc1ccccc1-n1c([C@H](C)Nc2nc(N)nc3nc[nH]c23)nc2cccc(C)c2c1=O` the value was 103 min; for `CCCCCOc1cc2c(cc1-c1cc(/C=C/C(=O)O)ccc1O)C(C)(C)CCC2(C)C`, 10.8 min. For `Cc1ccc(C(=O)Oc2ccc(C(O)CNC(C)(C)C)cc2OC(=O)c2ccc(C)cc2)cc1` (stereo unspecified) the value was 2.27 min; for `O=C1CC[C@H](C(=O)N2CCCCC2)N1`, over 120 min; for `CCn1cc(C(=O)O)c(=O)c2cc(F)c(N3CCN[C@@H](C)C3)c(F)c21`, 87.7 min. For `Fc1ccc2[nH]c(CN3CCN(c4ccccn4)CC3)cc2c1`, the half-life is 14.3 min. For `CNC(=O)O[C@H]1COc2ccc(N3CCN(C4COC4)CC3)cc2[C@@H]1NC(=O)c1ccc(F)cc1` the value was over 120 min; for `CC(C)(C)C1CCC(CC2=C(O)c3ccccc3C(=O)C2=O)CC1` (stereo unspecified), over 120 min; for `O=C(NC1CC1)C1CCCN1C(=O)c1cccc(-c2ccccn2)c1` (stereo unspecified), over 120 min. In the case of `Cc1nc2c(C(F)(F)F)cccc2nc1-c1ccc(-c2cccc(S(C)(=O)=O)c2)cc1` it was over 120 min; in that of `O=C(O)c1ccc(CN2CC(COc3ccccc3)C3(C2)CN(c2ccccc2)C3)cc1` (stereo unspecified), 64.8 min; in that of `COc1cnc(-c2ccc(Cn3c(CC(C)(C)C(=O)O)c(SC(C)(C)C)c4cc(OC[C@@H]5Cc6ccccc6N5C(C)=O)ccc43)cc2)nc1`, 12.1 min. For `CC(C(=O)O)C1C=CC(C(=O)c2ccccc2)S1` (stereo unspecified) the value was over 120 min. For the compound `Cc1ccc2c(c1)C(=O)[C@]1(O)CCN(c3ccccc3)C1=N2`, the half-life came to 1.71 min. In turn, `CCOC(=O)c1ccc(Nc2nc3nonc3nc2Nc2cccc(C)c2C)cc1` had a half-life of 10.7 min. Turning to `Cc1cc(=O)n(-c2ccccc2)n1C`, the half-life was over 120 min. In the case of `O=C(C=Cc1cccc(S(=O)(=O)Nc2ccccc2)c1)NO` it was over 120 min; in that of `CNC(=O)c1ccccc1Nc1nc(Nc2ccc(N3CCOCC3)cc2OC)ncc1Cl`, 34.9 min; in that of `Cc1nc2c(-c3cnc(N)nc3)nc(N3CCOCC3)nc2n1C(C)C`, over 120 min.

Regarding `CCN(CC)C(=O)C1CN2CCc3cc(OC)c(OC)cc3C2CC1OC(C)=O` (stereo unspecified), the half-life was over 120 min. In the case of `COc1ccc(Cn2c(SCC(=O)N3CCN(c4ccc(F)cc4)CC3)nc3ccccc32)cc1` it was 2.2 min. In the case of `CCOC(=O)c1cccnc1` it was 9.43 min; in that of `COc1cc(C(=S)N2CCOCC2)cc(OC)c1OC`, over 120 min; in that of `CC(=O)C1=C(c2ccc(Cl)c(Cl)c2)N(C(C)=O)n2cnnc2S1`, 4.52 min.

The compound `CC1CC(C)C(=O)C(C(O)CC2CC(=O)NC(=O)C2)C1` (stereo unspecified) returned a half-life of over 120 min. As for `COc1cc2cc(CN3CCC(N(C)C)C3)c(-c3cccc(Cl)c3)nc2cc1OC` (stereo unspecified), the half-life was over 120 min. For `CCN(C(=O)c1sc2cc(OC)ccc2c1Cl)c1ccccc1` the value was 3.3 min; for `COc1ccc(-c2cn3cccnc3n2)cc1NC(=O)c1cc(C)cc(C)c1`, 20.7 min; for `CCOc1ccc(-c2cc(NC(=O)Nc3ccccc3Cl)c(C(=O)OC)s2)cc1`, 47.8 min.

For the compound `c1ccc(C2CC2)c(OCC2=NCCN2)c1`, the half-life was over 120 min. For `O=C(O)CCCc1ccccc1` the value was over 120 min.

`Cc1ccc(C(=O)NC2CCN(c3cnn(CC4CC4)c(=O)c3)CC2)cc1C` registered a half-life of over 120 min. For the compound `CC(C)(C)C(=O)OCOP(=O)(COCCn1cnc2c(N)ncnc21)OCOC(=O)C(C)(C)C`, the half-life was found to be 3.13 min. `Cc1cc(C)cc(NC(=O)Nc2cccs2)c1` displayed a half-life of 3.55 min. `Cc1cccc(C(=O)O)c1O` showed a half-life of over 120 min.

Compound `O=C(NC1CCN(CCCCC2(C(=O)NCC(F)(F)F)c3ccccc3-c3ccccc32)CC1)c1ccccc1-c1ccc(C(F)(F)F)cc1` registered a half-life of 13.5 min. In the case of `Cc1cc(C)c(-n2cc(C)c3c(Cl)nc(C)nc32)c(C)c1` it was 10.1 min. Compound `COc1ccc(-c2ccc3cc(C(=O)O)ccc3c2)cc1C12CC3CC(CC(C3)C1)C2` had a half-life of 46.1 min. In the case of `COc1ccc(CC(=O)NCC(c2cccs2)S(=O)(=O)c2ccc(Cl)cc2)cc1` (stereo unspecified) it was 4.19 min.

Turning to `CCc1cc(Cl)c(OC)c(C(=O)NC[C@@H]2CCCN2CC)c1O`, the half-life worked out at 13.6 min. For `CN(C)[C@@H]1C(=O)C(C(N)=O)=C(O)[C@@]2(O)C(=O)C3=C(O)c4c(O)ccc(Cl)c4[C@@H](O)[C@H]3C[C@@H]12` the value was over 120 min; for `COc1ccc(CC(=O)Nc2c(C(=O)N3CCN(c4ccccc4F)CC3)oc3ccccc23)cc1OC`, 5.26 min; for `CCN(CC)CCCCCCNc1cc(OC)cc2c(C)ccnc12`, over 120 min.

Regarding `O[C@@H]1CO[C@H]2[C@@H]1OC[C@@H]2O`, the half-life was over 120 min. As to `C[C@@H]1O[C@@H](OC[C@H]2O[C@@H](Oc3c(-c4ccc(O)c(O)c4)oc4cc(O)cc(O)c4c3=O)[C@H](O)[C@@H](O)[C@@H]2O)[C@H](O)[C@H](O)[C@H]1O`, the half-life is over 120 min. `Cc1nc(NC(=O)N2CCCC2C(N)=O)sc1-c1ccnc(C(C)(C)C(F)(F)F)c1` (stereo unspecified) came in with a half-life of over 120 min. For `COC(=O)/C=C\C(=O)OC` the value was over 120 min; for `CCCCCC(=O)N1CCC[C@H]1C(=O)N[C@@H](Cc1ccc(O)cc1)C(=O)OC` (Hexanoyl-Pro-Tyr-OMe), 7.74 min; for `Cc1ccc(O)cc1Nc1ccnc(Nc2cccc(C(N)=O)c2)n1`, 86.5 min. For `Nc1ccn([C@@H]2O[C@H](CO)[C@H](O)C2(F)F)c(=O)n1`, the half-life is 22.3 min. For `CN1[C@@H]2CC[C@H]1CC(OC(=O)c1c[nH]c3ccccc13)C2` (stereo partly specified) the value was over 120 min; for `COc1cc2ncnc(Nc3ccc(F)c(Cl)c3)c2cc1NC(=O)C=CCN1CCCCC1`, over 120 min.

The compound `O=C(O)c1ccccc1NCCc1ccccc1` had a half-life of 23.8 min. For `CCCCNc1ncc(C(=O)NCc2ccc(-n3ccnc3)cc2)c(NC2CCC(O)CC2)n1` (stereo unspecified) the value was 33 min; for `CC1(C)OC[C@H](NC(=O)Nc2ccc(Br)cc2Br)[C@H](c2ccccc2)O1`, 1 min; for `CC1(C)SCCN(S(=O)(=O)c2ccc(OCC#CCO)cc2)[C@@H]1C(=O)NO`, over 120 min. `NC1(c2ccc(-c3nc4ccn5c(=O)[nH]nc5c4cc3-c3ccccc3)cc2)CCC1` registered a half-life of 83 min. For `CCCn1cnc2c1c(=O)n(CCCCC(C)=O)c(=O)n2C` the value was over 120 min; for `CCSC(=O)N1CCCCCC1`, 27.7 min. In the case of `COc1ccc2nc([C@H]3CCN(Cc4ccc(C(=O)O)cc4)C3)[nH]c2c1` it was over 120 min; in that of `Cc1ccccc1C(=O)Nc1cccc(-c2nc3cccnc3s2)c1`, 6.57 min. `CC(=O)N1CCC(Cc2ccc(C(=O)NC3CC3)cc2)CC1` registered a half-life of over 120 min. In the case of `NC(=O)c1ccccc1O` it was over 120 min. For `Nc1ccc(S(=O)(=O)Nc2ccccc2)cc1` the value was over 120 min. `Cc1cc2c(cc1S(N)(=O)=O)S(=O)(=O)CCC2` showed a half-life of over 120 min.

As to `NC(=O)[C@H]1CCS[C@@H]2C[C@]3(CCCN3C(=O)Cc3ccc(NC(=O)COc4ccc(Cl)cc4Cl)cc3)C(=O)N12`, the half-life worked out at 7.68 min. In turn, `CCCOc1cc(N)ccc1C(=O)OCCN(CC)CC` showed a half-life of 70.3 min. In the case of `O=C(OC1C[C@@H]2CC3C[C@H](C1)N2CC3=O)c1c[nH]c2ccccc12` (stereo partly specified) it was 5.19 min. For `C/C(=N/NC(=O)c1ccncc1)C(=O)O`, the half-life was over 120 min.

Regarding `CCOc1cc(CC(=O)N[C@@H](CC(C)C)c2ccccc2N2CCCCC2)ccc1C(=O)O`, the half-life is 44.3 min.

`Cc1cccc(C=NNc2cc(N3CCOCC3)nc(OCCc3ccccn3)n2)c1` displayed a half-life of 16 min. For `CC1(C)C(=O)N(c2ccc(C#N)c(C(F)(F)F)c2)C(=S)N1c1ccc(C(N)=O)c(F)c1` the value was over 120 min; for `COc1cc(C(c2c(C)[nH][nH]c2=O)c2c(C)[nH][nH]c2=O)ccc1OC(=O)c1cccc(C)c1`, 2.21 min. For `O=C(CO)N1CCC(c2[nH]nc(-c3ccc(Cl)cc3)c2-c2ccncn2)CC1`, the half-life was over 120 min.

As a reminder, the half-life is the time needed for the level to fall by half in the phase considered.

The values are drawn from PubChem BioAssay AID1963597 (National Center for Advancing Translational Sciences (NCATS), 2024).
